Patent US8124778B2, “Tricyclic inhibitors of fatty acid amide hydrolase” (The Scripps Research Institute, priority 2007, dated 2012)

How the values were obtained:
KIAA1363 = target: T1, KIAA1363 (Mus musculus, UniProt Q8BLF1); assay: Proteome-wide selectivity screening, KIAA1363; assay type: biochemical; settings: IC50 based
T1 construct: from tissue
T1 sequence (Q8BLF1 1-408): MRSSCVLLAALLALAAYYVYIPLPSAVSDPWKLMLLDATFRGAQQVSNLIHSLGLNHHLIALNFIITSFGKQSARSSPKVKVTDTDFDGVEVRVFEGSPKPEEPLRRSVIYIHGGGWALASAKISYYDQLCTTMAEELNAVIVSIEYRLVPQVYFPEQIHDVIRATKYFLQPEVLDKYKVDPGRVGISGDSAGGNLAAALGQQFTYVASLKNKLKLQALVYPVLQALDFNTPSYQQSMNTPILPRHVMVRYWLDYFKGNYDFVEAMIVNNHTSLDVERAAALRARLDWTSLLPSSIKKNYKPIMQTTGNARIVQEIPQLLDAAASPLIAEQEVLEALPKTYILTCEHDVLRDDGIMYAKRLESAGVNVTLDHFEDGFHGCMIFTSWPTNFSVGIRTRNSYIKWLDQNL
From the text: (§1) The present invention concerns the synthesis and evaluation of a systematic series of α-keto oxazole inhibitors having variations at the C2 acyl side chain along with results of the proteome-wide selectivity screening of the candidate inhibitors. The screening protocol is described by Leung, D.; Hardouin, C.; et al. Nature Biotech. 2003, 21, 687-691.
(§2) Selectivity Screening. […] Consequently a method for proteomic-wide screening capable of globally profiling all mammalian serine hydrolases was developed (Leung, D.; Hardouin, C.; et al. Nature Biotech. 2003, 21, 687-691) and studies have shown that the α-ketoheterocycle class of inhibitors generally are exquisitely selective for FAAH (Boger, D. L.; Miyauchi, H.; et al. J. Med. Chem. 2005, 48, 1849-1856; Leung, D.; Du, W.; et al. Bioorg. Med. Chem. Lett. 2005, 15, 1423-1428; Lichtman, A. H.; Leung, D.; et al. J. Pharmacol. Exp. Ther. 2004, 311, 441-448). However, two enzymes did emerge as potential competitive targets: triacylglycerol hydrolase (TGH) and an uncharacterized membrane-associated hydrolase that lacks known substrates or function (KIAA1363). In this screen, IC50 values are typically higher than the measured Ki values, but the relative potency, the magnitude of binding affinity differences and the rank order binding determined in the assay parallels that established by standard substrate assays. […]

[1] = target: T2, triacylglycerol hydrolase (TGH) (Mus musculus, UniProt Q8VCT4); assay: Proteome-wide selectivity screening, TGH; assay type: biochemical; settings: IC50 based
T2 construct: from tissue
T2 sequence (Q8VCT4 19-565): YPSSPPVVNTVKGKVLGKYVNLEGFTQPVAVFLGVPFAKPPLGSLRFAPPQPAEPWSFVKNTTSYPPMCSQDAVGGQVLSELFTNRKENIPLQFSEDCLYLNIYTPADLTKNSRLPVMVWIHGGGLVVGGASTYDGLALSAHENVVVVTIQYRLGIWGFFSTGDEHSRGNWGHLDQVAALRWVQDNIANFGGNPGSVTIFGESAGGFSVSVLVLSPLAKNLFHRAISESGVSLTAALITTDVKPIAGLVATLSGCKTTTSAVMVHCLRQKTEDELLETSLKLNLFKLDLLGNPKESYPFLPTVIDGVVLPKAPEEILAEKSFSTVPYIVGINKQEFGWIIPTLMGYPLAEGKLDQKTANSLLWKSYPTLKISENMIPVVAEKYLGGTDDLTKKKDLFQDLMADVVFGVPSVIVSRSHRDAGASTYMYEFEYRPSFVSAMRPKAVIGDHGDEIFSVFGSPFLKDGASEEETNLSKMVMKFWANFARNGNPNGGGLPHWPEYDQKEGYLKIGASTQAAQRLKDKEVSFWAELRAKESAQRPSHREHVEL
From the text: as §1, §2

selectivity for FAAH over KIAA1363 (in words) (KIAA1363) | selectivity for FAAH over TGH (in words) [1] | Structure (SMILES)
very selective | moderately selective | O=C(CCCCCCc1ccccn1)c1ncc(-c2ccccn2)o1 [5e, 1-Oxo-1-[5-(2-pyridyl)oxazol-2-yl]-7-(2-pyridyl)heptane]
very selective | moderately selective | O=C(CCCCCCc1cccnc1)c1ncc(-c2ccccn2)o1 [5f, 1-Oxo-1-[5-(2-pyridyl)oxazol-2-yl]-7-(3-pyridyl)heptane]
